Earlier results in patent US20100267960A1, “PROCESS FOR PREPARING PRAMIPEXOLE DIHYDROCHLORIDE TABLETS” (Boehringer Ingelheim Pharma GmbH & Co. KG, priority 2006, published 2010).
Counter-ions that a name gives are not always drawn.

Legend:
[1] = not given; remark: listed apart in the source

## CCCN[C@H]1CCc2nc(N)sc2C1 [Pramipexole dihydrochloride monohydrate, pramipexole dihydrochloride monohydrate]
Buffer media, between pH 2 and pH 7.4
  solubility in buffer media: above 10 mg/mL
water
  Water solubility: more than 20 mg/mL
[1]; solid
  hygroscopicity: not hygroscopic

## CCCN[C@H]1CCc2nc(N)sc2C1 [Pramipexole, (S)-2-amino-4,5,6,7-tetrahydro-6-(propylamino)benzothiazole]
[1]; in solution
  light sensitivity in solution: light sensitive
[1]; solid state
  stability in the solid state: very stable
